{"source": "patent US20130178441A1", "about": "“Methods for Extending Progression-Free Survival using 10-Propargyl-10-Deazaaminopterin” (ALLOS THERAPEUTICS, INC., priority 2010, published 2013)", "test_system": "relapsed/refractory PTCL", "test": "PROPEL subset analysis: second-line pralatrexate after first-line CHOP only (N=15) vs other patients (n=94)", "format": "in vivo, human", "experimental": "The most common therapy for first-line treatment of PTCL is the multi-agent combination cyclophosphamide/doxorubicin/vincristine prednisone (CHOP). However, most patients progress within 6-12 months, and there is no standard of care for second-line treatment of these patients. Thus optimal second-line approaches are needed and agents based on a unique mechanism of action warrant study. This analysis was conducted to determine if pralatrexate offered a beneficial second-line treatment option. […] All patients in the PROPEL study had received at least 1 prior therapy for PTCL. […] The efficacy in these patients was compared with the remainder of the patient population who had not received CHOP as their only therapy for PTCL prior to pralatrexate (n=94).", "key": {"[1]": {"conditions": "15 patients with CHOP as only prior therapy"}, "[2]": {"conditions": "individual responders after first-line CHOP, central review, most values censored"}, "[3]": {"conditions": "other patients in the study (n=94)"}, "[4]": {"conditions": "second-line after CHOP, N=15, central review"}, "[5]": {"conditions": "second-line after CHOP, N=15, investigator"}, "[6]": {"conditions": "second-line after CHOP, N=15, investigator, Kaplan-Meier"}, "[7]": {"conditions": "second-line after CHOP, N=15, investigator, Kaplan-Meier, listed as pralatrexate"}}, "note": "Several values for one entry are separate records, joined by “and”; a condition that tells them apart may be missing. Equal values may be shown once. Entries after “also recorded” stand apart in the source; their conditions may differ. Marks after values point to notes of the source that are not given here."}
{"smiles": "C#CCC(Cc1cnc2nc(N)nc(N)c2n1)c1ccc(C(=O)N[C@@H](CCC(=O)O)C(=O)O)cc1", "note": "(mixture of isomers) [Pralatrexate, (2S)-2-[[4-[(1RS)-1-[(2,4-diaminopteridin-6-yl)methyl]but-3-ynyl]benzoyl]amino]pentanedioic acid]", "values": [{"measurement": "CR/CRu by investigators assessment", "setting": "[1]", "result": 33, "unit": "%"}, {"measurement": "Complete responses [CR] by independent central review", "setting": "[1]", "result": 20, "unit": "%"}, {"measurement": "ORR by investigator assessment", "setting": "[1]", "result": 40, "unit": "%"}, {"measurement": "Overall response rate (ORR) by independent central review", "setting": "[1]", "result": 47, "unit": "%"}, {"measurement": "Duration of Response", "setting": "individual responder after first-line CHOP, central review, censored (initiation of other subsequent therapy)", "result": 1, "unit": "day^a"}, {"measurement": "Duration of Response (months)", "setting": "[2]", "result": "10.1^a months and 9.7^b months and 8.3^b months and 6.5^a months and 3.3^c months and 2.3^c months"}, {"measurement": "PFS (months)", "setting": "[2]", "result": "14.8^a months and 17.8^b months and 15.5^b months and 8.1 months and 4.6^c months and 3.4^c months and 4.6^a months"}, {"measurement": "Duration of Response (months)", "setting": "individual responders after first-line CHOP, central review, most values censored, listed as pralatrexate", "result": "2.3 months and 3.3 months"}, {"measurement": "Patients still alive at the time of last contact", "setting": "of the 15 patients", "result": 73, "unit": "%"}, {"measurement": "Patients who proceeded to a stem cell transplant upon attaining a response to pralatrexate", "setting": "of the 15 patients treated only with CHOP", "result": "Two"}, {"measurement": "CR/CRu by investigators assessment", "setting": "other patients (n=94)", "result": 16, "unit": "%"}, {"measurement": "Median PFS according to central review", "setting": "other patients (n=94)", "result": 3.1, "unit": "months"}, {"measurement": "Median PFS per investigator assessment", "setting": "other patients (n=94)", "result": 3.5, "unit": "months"}, {"measurement": "Median duration of response per investigator assessment", "setting": "other patients (n=94)", "result": 6.7, "unit": "months"}, {"measurement": "ORR by investigators assessment", "setting": "other patients (n=94)", "result": 39, "unit": "%"}, {"measurement": "CR/CRu by independent central review", "setting": "[3]", "result": 10, "unit": "%"}, {"measurement": "ORR by independent central review", "setting": "[3]", "result": 27, "unit": "%"}, {"measurement": "12-month OS estimate", "setting": "second-line after CHOP, N=15", "result": 73, "unit": "%"}, {"measurement": "OS, Median, months (95% CI)", "setting": "second-line after CHOP, N=15, NE = not able to estimate", "result": "not able to be estimated"}, {"measurement": "PFS, Range", "setting": "[4]", "result": "0.7-17.8^c months"}, {"measurement": "Tumor Response: CRu", "setting": "[4]", "result": "0 (0) n (%)"}, {"measurement": "Tumor Response: Not evaluable", "setting": "[4]", "result": "0 (0) n (%)"}, {"measurement": "Tumor Response: ORR (CR + CRu + PR)", "setting": "[4]", "result": "7 (47) n (%)"}, {"measurement": "Tumor response: CR", "setting": "[4]", "result": "3 (20) n (%)"}, {"measurement": "Tumor response: PD", "setting": "[4]", "result": "4 (27) n (%)"}, {"measurement": "Tumor response: PR", "setting": "[4]", "result": "4 (27) n (%)"}, {"measurement": "Tumor response: SD", "setting": "[4]", "result": "4 (27) n (%)"}, {"measurement": "PFS, Median, months (95% CI)", "setting": "second-line after CHOP, N=15, central review, Kaplan-Meier", "result": "8.1 (4.6, NE) months"}, {"measurement": "PFS, Median, months (95% CI)", "setting": "second-line after CHOP, N=15, central review, Kaplan-Meier, listed as pralatrexate", "result": 8.1, "unit": "months"}, {"measurement": "Duration of response, Median, months (95% CI)", "setting": "second-line after CHOP, N=15, central review, NE = not able to estimate, insufficient PD events", "result": "not reached; also recorded: not yet estimable"}, {"measurement": "Tumor Response: CRu", "setting": "[5]", "result": "1 (7) n (%)"}, {"measurement": "Tumor Response: Not evaluable", "setting": "[5]", "result": "1 (7)^a n (%)"}, {"measurement": "Tumor Response: ORR (CR + CRu + PR)", "setting": "[5]", "result": "6 (40) n (%)"}, {"measurement": "Tumor response: CR", "setting": "[5]", "result": "4 (27) n (%)"}, {"measurement": "Tumor response: PD", "setting": "[5]", "result": "4 (27) n (%)"}, {"measurement": "Tumor response: PR", "setting": "[5]", "result": "1 (7) n (%)"}, {"measurement": "Tumor response: SD", "setting": "[5]", "result": "4 (27) n (%)"}, {"measurement": "Duration of response, Median, months (95% CI)", "setting": "[6]", "result": "12.5 (10.8, NE) months"}, {"measurement": "PFS, Median, months (95% CI)", "setting": "[6]", "result": "7.4 (2.3, 15.0) months"}, {"measurement": "Duration of response, Median, months (95% CI)", "setting": "[7]", "result": 12.5, "unit": "months"}, {"measurement": "PFS, Median, months (95% CI)", "setting": "[7]", "result": 7.4, "unit": "months"}, {"measurement": "OS, Range", "setting": "second-line after CHOP, N=15, survival follow-up ended at 2 years", "result": "1.5-24.0^d months"}, {"measurement": "Current disease-free period (duration of response to pralatrexate + time since stem cell transplant)", "setting": "the 2 patients who proceeded to stem cell transplant", "result": "20.9 months and 27.2 months and 20.1 months and 21.7 months"}]}
